Data set [1] has as its system streptozotocin (STZ, 150 mg/kg)-induced diabetic nephropathy mouse model. Briefly: UUO renal fibrosis and streptozotocin-induced diabetic nephropathy mouse models. Format: in vivo. As to conditions: UUO and STZ (150 mg/kg) mouse models. As for the experimental part: As a result, it was confirmed that a dose of 25 mg/kg was effective for diabetic nephropathy. When the dose confirmed in the animal model is converted into HED (Human Equivalent Dose), it is calculated as follows. HED=Animal dose in mg/kg×{Animal weight in kg/Human weight in kg}×60 kg=25 mg/kg×0.08×60 kg=120 mg

For data set [2], the system named is rat renal fibroblast cell line (NRK-49F). The following applies: cited from earlier work.
Data set [3] has as its system RMCs and rat glomerular mesangial cells. As to conditions: cited from earlier work.
In the next data set the test system is AD-293 cells. As to conditions: cited from earlier work.
Another data set relates to NRK-49F and RMC cells. As to conditions: cited from earlier work.
Another data set has as its system Nrf2. As to conditions: cited from earlier work.
Another data set has as its system NRK-49F cells. The following applies: DMF 40 μmol/1, semi-quantitative RT-PCR; cited from earlier work.
The subject of data set [4] is UUO-induced renal fibrosis model. The following applies: cited from earlier work.
For data set [5], the system named is TGF-β/Smad signaling and ECM expression. As to conditions: chemical inhibitor of NQO1 or HO-1 added to DMF; cited from earlier work.
For data set [6] the following is noted: cited from earlier work.

SMILES strings stand for the structures. Structures can show the parent of a compound that is named as a salt.

On to `COC(=O)/C=C/C(=O)OC` [DMF, Dimethyl fumarate], for which, in [1], the “dose effective for diabetic nephropathy” value stood at 25 mg/kg. In addition, in [2] (24 hours of TGF-β treatment), the “collagen type 1 induced by TGF-β (mRNA and protein)” value is reported as “dose-dependently inhibit”. Moreover, the “TGF-β-mediated expression of PAI-1, a-SMA, and fibronectin mRNA and protein” value in data set [2] is “inhibited the TGF-β-mediated expression of PAI-1, a-SMA, and fibronectin mRNA and protein dose-dependently”. In data set [3], the “TGF-β-induced expression of PAI-1 protein” value is given as “inhibitory effect”. Further, the “activity of the PAI-1 promoter induced by TGF-β” value in the data set on AD-293 cells (AD-293 cells, PAI-1-Luc reporter) is “inhibited”. In addition, the “activity of the (CAGA)9MLP-Luc promoter induced by TGF-β or ALK5” value in the data set with AD-293 cells (reporter with 9 copies of the Smad3 binding site) is given as “inhibited”. Besides, the “Smad3 phosphorylation induced by TGF-β” value with NRK-49F and RMC cells is given as “inhibited”. In the data set with Nrf2 (NRK-49F cells), the Nrf2 protein expression result is “sharp increase” and the “nuclear accumulation of Nrf2” value is recorded as “induced the nuclear accumulation of Nrf2 dose-dependently”. The “expression of Nrf2 protein” value in the data set on Nrf2 (RMC cells) is “rapidly increased”. Also, the “expression of p62” value in the data set with Nrf2 (after DMF treatment) is “increased 6 h after the DMF treatment and up to 12 hours thereafter”. The “expression of NQO1 and HO-1” value with NRK-49F cells is “increased”. In addition, in [4], the “expression of collagen type I, fibronectin, PAI-1 and α-SMA related to fibrosis” value is “decreased the expression of collagen type I, fibronectin, PAI-1 and α-SMA”; the “expression of p-Smad3 increased by UUO” value is given as “decreased the expression of p-Smad3”.
Consider `COC1=CC(=O)c2c(c(COc3ccc([N+](=O)[O-])cc3)c(C)n2C)C1=O` [ES936], for which the “reversal of the inhibitory effect of DMF on the TGF-β/Smad signaling and ECM expression” value in [5] is “did not reverse”.
As to `COC(=O)/C=C/C(=O)O` [MMF, monomethyl fumarate], the “detection of MMF after administration” value in [6] (24 hours after administration of the drug) is on record as “not detected 24 hours after administration”. Moreover, in data set [6] (in vivo), the “elimination half-life of MMF” value is “about 1 hour”. The “accumulation of MMF in the body” value in data set [6] (repeated administration) is reported as “does not accumulate in the body even after repeated administration”.

The record behind these values is patent US20230135608A1 (CURACLE CO., LTD., priority 2021, published 2023).
